This is an account of results in US9618511B2, “Methods and compositions for treating alzheimer's disease” (Eleanore Bennett Charitable Trust #2, priority 2008, dated 2017).

For test [1], the target named is T1, c-AMP-dependent protein kinase A (PKA) (Bos taurus, UniProt P00517).
T1 construct: purified c-AMP-dependent protein kinase A (PKA, Promega) from bovine heart; purchased Promega; host or cells: bovine heart (tissue-purified)
Briefly: PKA activity assay (GSK-3 substrate phosphorylation). Type of test: biochemical, bovine. The note with it: Aβ 10 μM, PKA 2U. The protocol: Recombinant Phosphatase and Tensin Homolog (PTEN; R & D Systems, Minneapolis, Minn.), purified PP2A from human erythrocytes (Upstate, Temecula, Calif.), and purified c-AMP-dependent protein kinase A (PKA, Promega) from bovine heart were stored at −20 and used freshly. PKA inhibitor (PKI, Biosource) and PI3K inhibitor, LY294002 (Cell Signaling) were diluted to 20 or 10 μM in kinase buffer. Antibodies used were: anti-cdk4 (polyclonal), Akt, Actin (polyclonal), and IRa (polyclonal) (Santa Cruz); p-Akt (polyclonal; Ser473 and Thr308), p-GSK-3α/0 (polyclonal; Ser21/9), GSK-30 (polyclonal), IRP (monoclonal), p-Tyrosine (monoclonal), and p-PDK (polyclonal, Ser241) (Cell Signaling, Danvers, Mass.); IRS-1 (monoclonal) and PDK (monoclonal) (BD Biosciences); PI3K (polyclonal, p85) and SGK (polyclonal) (Upstate, Temecula, Calif.); Rictor (polyclonal) (Bethyl Laboratories, Montgomery, Tex.); 6E10 (monoclonal; Covance Co.); R1282 (polyclonal; gift from Dr. Selkoe's lab). Phospholipase A2 (PLA2) was from Sigma. The lipids phosphatidylinositol-tris-3,4,5-phosphate, dipalmitoyl, (PIP3) (Matreya LLC, Pleasant Gap, Pa.), and D-myo-Phosphatidylinositol (PtdIns; PI) (Echelon, Salt Lake City, Utah) were diluted into water or CHCl3:MeOH:H2O (1:2:0.8), aliquoted into 100 μg vials and stored at −20° C. […]

Test [2] relates to PI3K (p85) from NIH/3T3 cells. Briefly: PI3K activity assay (conversion of PI to PI3P, TLC). In kind it is biochemical.
Experimental: PI3K was immunoprecipitated (IP) from the NIH/3T3 cell lysates with rabbit anti-p85 subunit (Upstate). The IPs were washed twice with cold phosphate buffered saline (PBS) buffer containing 0.5% NP-40 and 0.1 mM Na3VO4, and then twice with THE buffer [Tris.HCl pH7.4 20 mM, NaCl 100 mM, EGTA 0.5 mM]. PI3K activity was determined by incubating the beads with kinase buffer [6.5 mM HEPES (pH 7.4), 10 mM MgCl2] with 50 μM ATP, 2 μCi [y-32P]ATP, 4 μg of 3-sn-Phosphatidyl-L-serine (PS) and 2 μg of D-myo-Phosphatidylinositol (PtdIns; PI) (Echelon, Salt Lake City, Utah) for 10 min at room temperature. The reactions were stopped by adding 50 μl of 4N HCl. Phospholipids were extracted using 100 μl of CHCl3/methanol (1:1). […] The conversion of PI to PI3P was detected and quantified using a Storm Phosphorimager (GE Healthcare).
Phosphatidylinositol (PI), including phosphatidylserine (PS) as a carrier, was used as a substrate for PI3K activity assay. [y-32P]ATP and kinase buffer were added to the IP and lipid mixture at room temperature to start the reaction. Phospholipids were extracted in 100 μl of CHCl3/methanol and separated by TLC. Bar charts give quantified results using a phosphorimager.

Entries after “also recorded” stand apart in the source; their conditions may differ.

On to “Aβ42: synthetic 42 amino acid β-amyloid peptide, forward sequence, freshly prepared, predominantly monomeric (BioSource)”, for which the “PKA phosphorylation of GSK-3 α/β substrate” value in test [1] is “not inhibited”. In addition, the PI3K activity entry in test [2] (10 μM peptide) is on record as “did not; also recorded: no effect”; in test [2] (dose-response: Aβ1-42 0.05, 0.5, 5 μM, reverse Aβ42-1 5 μM) it was “no effect”.
